In patent publication US11691951B2 (Curtana Pharmaceuticals, Inc., priority 2015, dated 2023) one finds IC50 data, which are given here for 21 compounds.

The test system of test [1] is GBM4 cells (human glioblastoma neurosphere cell culture). In words: GBM4 viability assay (Cell Titer Glo luminescence, 3 days). The test is classed as cell-based. Particulars: 72 h, 3 days incubation. As for the experimental part:
Example 283: GBM4 and GBM8 Viability Assay
Cell culture medium was prepared from a NSA proliferation kit (Neurocult) and NeuroCult supplements (Stemcell Tech Cat. #05751) and treated with 20 μL of 10 μg/mL rh EGF, 10 μL of 10 μg/mL rh bFGF and 10 μL of 0.2% Heparin. In this medium, human glioblastoma cells were cultured in ultra-low attachment tissue culture flasks until 1×10^6 cells ml was achieved (GBM4 and GBM8 are distinct neurosphere cell cultures derived from these human patient tissues). GBM4 and GBM8 cells were dissociated and 10 mL of media containing 4000 human glioblastoma cells per 90 uL were transferred to an ultra-low binding 96-well plate and incubated at 37° C. overnight. On the following day, 10 μL of a 1% DMSO solution of test compound in assay medium was added to wells containing the cell suspension and the mixture incubated at 37° C. for 3 days. At this time, the plate was removed from the incubator and allowed to reach room temperature. After about 30 minutes, 50 μL of Cell Titer Glo solution was added to each well and the plate shaken for 1 minute at low speed. After 10 minutes luminescence was recorded using a Tecan Safire2 reader.
Reduction in luminescence compared to DMSO only control wells was used to determine the percentage inhibition of cell growth. IC50s were calculated using the % inhibition of luminescence for serial dilutions of compounds fitted to a 4-parameter fit within the Prism (San Diego) curve fitting program.

Test [2] deals with GBM8 cells (human glioblastoma neurosphere cell culture). Nature of the test: GBM8 viability assay (Cell Titer Glo luminescence, 3 days). Particulars: 72 h, 3 days incubation. The test is classed as cell-based. The essentials: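 Patient-derived neurosphere cells (4000/well) in NeuroCult medium with rh EGF, rh bFGF and heparin, ultra-low attachment, dosed after overnight settling; 3 days at 37 °C. CellTiter-Glo luminescence versus DMSO controls gave % growth inhibition; IC50 from 4-parameter fit of serial dilutions.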

The structures appear in SMILES notation. Structures can show the parent of a compound that is named as a salt.

With `CCN1CCCC(Nc2cc(C)nc(NC(=O)Nc3ccc(Cl)c(Cl)c3)n2)C1` (racemic) [Compound 30, (±)-2-[3-(3,4-dichlorophenyl)ureido]-4-(1-ethyl-piperidin-3-yl-amino)-6-methylpyrimidine], the IC50 in test [1] and in test [2] was 10000 to 30000 nM in each case.

As for `Cc1cc(N2CCN(C)CC2)nc(NC(=O)Nc2ccc(Cl)c(Cl)c2)n1` [Compound 5, 1-(3,4-dichlorophenyl)-3-{6-methyl-4-(4-methyl-piperazin-1-yl-)pyrimidin-2-yl}-urea], in test [1], the IC50 fell in the range of 10000 to 30000 nM.

Turning to `Cc1cc(NCCCO)nc(NC(=O)Nc2ccc(Cl)c(Cl)c2)n1` [Compound 7, 3-{2-[3-(3,4-dichlorophenyl)ureido]-6-methyl-pyrimidin-4-yl}-aminopropanol], the IC50 in test [1] and in test [2] was under 1000 nM each time.

On to `Cc1cc(Nc2ccncc2)nc(NC(=O)Nc2ccc(Cl)c(Cl)c2)n1` [Compound 39, 2-[3-(3,4-dichlorophenyl)ureido]-6-methyl-4-(4-pyridylamino)-pyrimidine], for which the IC50 in test [1] and in test [2] was 1000 to 10000 nM in each case.

As for `Cc1cc(NCCCN(C)C)nc(NC(=O)Nc2ccc(Cl)c(Cl)c2)n1` [Compound 8, 1-{2-[3-(3,4-Dichlorophenyl)ureido]-6-methyl-pyrimidin-4-yl}-amino-3-(dimethylamino)propane], the IC50 in test [1] and in test [2] was under 1000 nM in each case.

`Cc1cc(NC2CCCNC2)nc(NC(=O)Nc2ccc(Cl)c(Cl)c2)n1` (racemic) [Compound 24, (±)-2-[3-(3,4-dichlorophenyl)ureido]-6-methyl-4-(3-piperidylamino)pyrimidine hydrochloride]: the IC50 in test [1] and in test [2] was under 1000 nM each time.

Take `Cc1cc(N2CCOCC2)nc(NC(=O)Nc2ccc(Cl)c(Cl)c2)n1` [Compound 4, 1-(3,4-dichlorophenyl)-3-(6-methyl-4-morpholino-2-pyrimidinyl) Urea]: the IC50 in test [1] is 10000 to 30000 nM; in test [2] it was 1000 to 10000 nM.

In the case of `CNCCN(C)c1cc(C)nc(NC(=O)Nc2ccc(Cl)c(Cl)c2)n1` [Compound 6, 1-(N-methyl{2-[3-(3,4-dichlorophenyl)ureido]-6-methyl-4-pyrimidinyl}amino)-2-(methylamino)ethane], the IC50 in test [1] and in test [2] was 1000 to 10000 nM in each case.

With `CCN1CCCC(Nc2cc(C)nc(N3CCN(c4ccc(Cl)c(Cl)c4)C3=O)n2)C1` (racemic) [Compound 34, (±)-1-(3,4-dichlorophenyl)-3-[4-(1-ethyl-3-piperidylamino)-6-methyl-2-pyrimidinyl]-2-imidazolidinone], the IC50 fell in the range of 10000 to 30000 nM in test [1] and 1000 to 10000 nM in test [2].

On to `Cc1cc(NCC2CCCNC2)nc(NC(=O)Nc2ccc(Cl)c(C(F)(F)F)c2)n1` (centres unmarked) [Compound 66], for which the IC50 in test [2] was under 1000 nM.

In test [2], `Cc1cc(NCCCCN)nc(NC(=O)Nc2ccc(C)c(C)c2)n1` [Compound 254] came in with an IC50 of under 1000 nM.

In turn, `CNCCCNc1cc(C)nc(NC(=O)Nc2ccc(F)c(Cl)c2)n1` [Compound 170] had a half-maximal inhibitory concentration (IC50) in test [2] of under 1000 nM.

Consider `Cc1cccc(NC(=O)Nc2nc(C)cc(NCCCCO)n2)c1` [Compound 212], for which the IC50 in test [2] is under 1000 nM.

Take `CNCCCCNc1cc(C)nc(NC(=O)Nc2cccc(OC)c2)n1` [Compound 154]: the IC50 in test [2] fell in the range of 1000 to 10000 nM.

Regarding `Cc1cc(NCCN(C)C)nc(NC(=O)Nc2ccccc2)n1` [Compound 74], the IC50 in test [2] was 1000 to 10000 nM.

In test [2], `CC(=O)NCCCNc1cc(C)nc(NC(=O)Nc2ccc(Cl)c(Cl)c2)n1` [Compound 272, N-(3-((2-(3-(3,4-dichlorophenyl)ureido)-6-methylpyrimidin-4-yl)amino)propyl)acetamide] displayed an IC50 of 1000 to 10000 nM.

Compound `CC(=O)NCCNc1cc(C)nc(NC(=O)Nc2ccc3c(c2)OCCO3)n1` [Compound 307, N-(2-{2-[3-(2,3-dihydro-benzo[1,4]dioxin-6-yl)-ureido]-6-methyl-pyrimidin-4-ylamino}-ethyl)-acetamide] had an IC50 in test [2] of under 1000 nM.

For the compound `Cc1cc(NCCc2ccccn2)nc(NC(=O)Nc2ccc(Cl)c(C(F)(F)F)c2)n1` [Compound 57], in test [2], the IC50 was in the range of 1000 to 10000 nM.

Compound `Cc1cc(NCCCCO)nc(NC(=O)Nc2ccc(C(F)(F)F)cc2)n1` [Compound 200] had an IC50 in test [2] of under 1000 nM.

Consider `Cc1cc(NCCCCO)nc(NC(=O)Nc2ccccc2)n1` [Compound 73], for which, in test [2], the IC50 is 1000 to 10000 nM.

In the case of `Cc1cc(NCCOCCO)nc(NC(=O)Nc2ccc(Cl)c(Cl)c2)n1` [Compound 18], the IC50 in test [2] is under 1000 nM.
